How the values were obtained:
[1] = molecular target: T1, human FXR alpha ligand binding domain (Homo sapiens, UniProt Q96RI1); assay: FRET activity assay (ligand mediated cofactor peptide interaction, LANCE); type: biochemical; details: GST-FXR-LBD / biotinylated SRC-1 peptide (676-700), read-out: F EC50
T1 construct: made in house; host or cells: E. coli BL21(DE3), vector pDEST15
T1 sequence (Q96RI1 187-472 isoform Q96RI1-2): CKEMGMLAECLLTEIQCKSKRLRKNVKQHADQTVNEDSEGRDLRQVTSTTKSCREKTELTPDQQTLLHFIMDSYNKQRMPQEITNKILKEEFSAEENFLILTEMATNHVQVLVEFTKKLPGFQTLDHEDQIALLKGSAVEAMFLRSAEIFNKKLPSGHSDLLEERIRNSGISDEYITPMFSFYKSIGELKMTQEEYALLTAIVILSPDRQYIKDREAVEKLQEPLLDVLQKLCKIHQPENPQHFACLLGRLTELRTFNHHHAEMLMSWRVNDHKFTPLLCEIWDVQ
Experimental: Determination of a ligand mediated cofactor peptide interaction to quantify ligand binding to the nuclear receptor FXR was performed as follows: Preparation of human FXR alpha ligand binding domain: The human FXRalpha LBD was expressed in E. coli strain BL21(DE3) as an N-terminally GST tagged fusion protein. The DNA encoding the FXR ligand binding domain was cloned into vector pDEST15 (Invitrogen). Expression was under control of an IPTG inducible T7 promoter. The amino acid boundaries of the ligand binding domain were amino acids 187-472 of Database entry NM_005123 (RefSeq). Expression and purification of the FXR-LBD: An overnight preculture of a transformed E. coli strain was diluted 1:20 in LB-Ampicillin medium and grown at 30° C. to an optical density of OD600=0.4-0.6. Gene expression was then induced by addition of 0.5 mM IPTG. Cells were incubated an additional 6 h at 30° C., 180 rpm. Cells were collected by centrifugation (7000×g, 7 min, rt). Per liter of original cell culture, cells were resuspended in 10 mL lysis buffer (50 mM Glucose, 50 mM Tris pH 7.9, 1 mM EDTA and 4 mg/mL lysozyme) and left on ice for 30 min. Cells were then subjected to sonication and cell debris removed via centrifugation (22000×g, 30 min, 4° C.). Per 10 mL of supernatant 0.5 mL prewashed Glutathione 4B sepharose slurry (Qiagen) was added and the suspension kept slowly rotating for 1 h at 4° C. Glutathione 4B sepharose beads were pelleted by centrifugation (2000×g, 15 sec, 4° C.) and washed twice in wash buffer (25 mM Tris, 50 mM KCl, 4 mM MgCl2 and 1M NaCl). The pellet was resuspended in 3 mL elution buffer per liter of original culture (elution buffer: 20 mM Tris, 60 mM KCl, 5 mM MgCl2 and 80 mM glutathione added immediately prior to use as powder). The suspension was left rotating for 15 min at 4° C., the beads pelleted and eluted again with half the volume of elution buffer than the first time. The eluates were pooled and dialysed overnight in 20 mM Hepes buffer (pH 7.5) containing 60 mM KCl, 5 mM MgCl2 as well as 1 mM dithiothreitol and 10% (v/v) glycerol. The protein was analysed by SDS-Page.
The method measures the ability of putative ligands to modulate the interaction between the purified bacterial expressed FXR ligand binding domain (LBD) and a synthetic biotinylated peptide based on residues 676-700 of SRC-1 (LCD2, 676-700). The sequence of the peptide used was B—[…]—COOH where the N-terminus was biotinylated (B). The ligand binding domain (LBD) of FXR was expressed as fusion protein with GST in BL-21 cells using the vector pDEST15. Cells were lysed by sonication, and the fusion proteins purified over glutathione sepharose (Pharmacia) according to the manufacturers instructions. For screening of compounds for their influence on the FXR-peptide interaction, the Perkin Elmer LANCE technology was applied. This method relies on the binding dependent energy transfer from a donor to an acceptor fluorophor attached to the binding partner of interest. For ease of handling and reduction of background from compound fluorescence LANCE technology makes use of generic fluorophore labels and time resolved detection Assays were done in a final volume of 25 μL in a 384 well plate, in a Tris-based buffer (20 mM Tris-HCl pH 7.5; 60 mM KCl, 5 mM MgCl2; 35 ng/μL BSA), containing 20-60 ng/well recombinantly expressed FXR-LBD fused to GST, 200-600 nM N-terminally biotinylated peptide, representing SRC1 aminoacids 676-700, 200 ng/well Streptavidin-xIAPC conjugate (Prozyme) and 6-10 ng/well Eu W1024-antiGST (Perkin Elmer). DMSO content of the samples was kept at 1%. After generation of the assay mix and diluting the potentially FXR modulating ligands, the assay was equilibrated for 1 h in the dark at rt in FIA-plates black 384 well (Greiner). The LANCE signal was detected by a Perkin Elmer VICTOR2VTM Multilabel Counter. The results were visualized by plotting the ratio between the emitted light at 665 and 615 nm. […]

[2] = molecular target: T2, FXR ligand binding domain (Homo sapiens, UniProt Q96RI1); assay: Mammalian One Hybrid (M1H) assay, Gal4 promoter driven transactivation in HEK293 cells; type: cell-based; details: Gal4-FXR-LBD luciferase reporter, 16 h
T2 construct: expressed in transfected cells; host or cells: HEK293 cells, transiently transfected with pCMV-BD-FXR-LBD, pFR-Luc and pRL-CMV
T2 sequence (Q96RI1 187-472 isoform Q96RI1-2): T1 sequence (Q96RI1 187-472 isoform Q96RI1-2)
Experimental: Mammalian One Hybrid (M1H) Assay
Determination of a ligand mediated Gal4 promoter driven transactivation to quantify ligand binding mediated activation of FXR was performed as follows: The cDNA part encoding the FXR ligand binding domain was cloned into vector pCMV-BD (Stratagene) as a fusion to the yeast GAL4 DNA binding domain under the control of the CMV promoter. The amino acid boundaries of the ligand binding domain were amino acids 187-472 of Database entry NM_005123 (RefSeq). The plasmid pFR-Luc (Stratagene) was used as the reporter plasmid, containing a synthetic promoter with five tandem repeats of the yeast GAL4 binding sites, driving the expression of the Photinus pyralis (American firefly) luciferase gene as the reporter gene. In order to improve experimental accuracy the plasmid pRL-CMV (Promega) was cotransfected. pRL-CMV contains the constitutive CMV promoter, controlling the expression of the Renilla reniformis luciferase. All Gal4 reporter gene assays were done in HEK293 cells (obtained from DSMZ, Braunschweig, Germany) grown in MEM with L-Glutamine and Earle's BSS supplemented with 10% fetal bovine serum, 0.1 mM nonessential amino acids, 1 mM sodium pyruvate, and 100 units Penicilin/[…] per mL at 37° C. in 5% CO2. Medium and supplements were obtained from Invitrogen. For the assay, […] cells were plated per well in 96 well plates in 100 μL per well MEM without Phenol Red and L-Glutamine and with Earle's BSS supplemented with 10% charcoal/dextran treated FBS (HyClone, South Logan, Utah), 0.1 mM nonessential amino acids, 2 mM glutamine, 1 mM sodium pyruvate, and 100 units Penicilin/[…] per mL, incubated at 37° C. in 5% CO2. The following day the cells were >90% confluence. Medium was removed and cells were transiently transfected using 20 μL per well of a OptiMEM—polyethylene-imine-based transfection-reagent (OptiMEM, Invitrogen; Polyethyleneimine, Aldrich Cat No. 40,827-7) including the three plasmids described above. MEM with the same composition as used for plating cells was added 2-4 h after addition of transfection mixture. Then compound stocks, prediluted in MEM were added (final vehicle concentration not exceeding 0.1%). Cells were incubated for additional 16 h before firefly and renilla luciferase activities were measured sequentially in the same cell extract using a Dual-Light-Luciferase-Assay system (Dyer et al., Anal. Biochem. 2000, 282, 158-161). All experiments were done in triplicates.

EC50 [1] [µM] | EC50 [2] [µM] | Structure (SMILES)
0.0049 | 0.0019 | CC(C)(F)c1onc(-c2c(Cl)cccc2Cl)c1CO[C@@H]1C[C@H]2CC[C@@H](C1)[C@]2(O)c1nc2c(F)cc(C(=O)O)cc2s1 [Example 11-52, 2-((1R,3s,5S,8r)-3-((3-(2,6-Dichlorophenyl)-5-(2-fluoropropan-2-yl)isoxazol-4-yl)methoxy)-8-hydroxybicyclo[3.2.1]octan-8-yl)-4-fluorobenzo[d]thiazole-6-carboxylic acid]
0.082 | 0.0064 | Cc1cccc(C)c1OCc1noc(C2CC2)c1CO[C@@H]1C[C@H]2CC[C@@H](C1)[C@]2(O)c1nc2c(F)cc(C(=O)O)cc2s1 [Example 11-50, 2-((1R,3s,5S,8r)-3-((5-Cyclopropyl-3-((2,6-dimethylphenoxy)methyl)isoxazol-4-yl)methoxy)-8-hydroxybicyclo[3.2.1]octan-8-yl)-4-fluorobenzo[d]thiazole-6-carboxylic acid]
0.046 | 0.19 | O=C(O)c1cc(F)c2nc([C@]3(O)CC4CC3CC4OCc3c(-c4c(Cl)cccc4Cl)noc3C3CC3)sc2c1 (single isomer, unassigned) [Example 11-48]
0.015 | 0.015 | O[C@@]1(c2nc3ccc(CN4CCOCC4)cc3s2)[C@@H]2CC[C@H]1C[C@H](OCc1c(-c3c(Cl)cccc3Cl)noc1C1CC1)C2 [Example 43, (1R,3s,5S,8r)-3-((5-Cyclopropyl-3-(2,6-dichlorophenyl)isoxazol-4-yl)methoxy)-8-(6-(morpholinomethyl)benzo[d]thiazol-2-yl)bicyclo[3.2.1]octan-8-ol]

More lines, now with the values behind:

Structure (SMILES) | EC50 [1] [µM] | EC50 [2] [µM]
O=C(O)c1cc(F)c2nc(C3(O)C[C@H]4CC(OCc5c(-c6c(Cl)cccc6Cl)noc5C5CC5)C[C@H]4C3)sc2c1 (stereo partly drawn) [Example 11-46, 2-((3aR,6aS)-5-((5-Cyclopropyl-3-(2,6-dichlorophenyl)isoxazol-4-yl)methoxy)-2-hydroxyoctahydropentalen-2-yl)-4-fluorobenzo[d]thiazole-6-carboxylic acid] | 0.044 | 0.18
O=C(O)c1ccc2nc([C@]3(O)CC[C@@H](OCc4c(-c5c(Cl)cncc5Cl)noc4C4CC4)CC3)sc2c1 [Example 11-16, 2-((1s,4s)-4-((5-Cyclopropyl-3-(3,5-dichloropyridin-4-yl)isoxazol-4-yl)methoxy)-1-hydroxycyclohexyl)benzo[d]thiazole-6-carboxylic acid] | 0.084 | 0.57
O=C(O)c1cccc([C@]2(O)[C@@H]3CC[C@H]2C[C@H](OCc2c(-c4c(Cl)cccc4Cl)noc2C2CC2)C3)c1 [Example 11-25, 3-((1R,3s,5S,8r)-3-((5-Cyclopropyl-3-(2,6-dichlorophenyl)isoxazol-4-yl)methoxy)-8-hydroxybicyclo[3.2.1]octan-8-yl)benzoic acid] | 0.079 | 0.43
O=C(O)c1ccc2nc([C@]3(O)[C@@H]4CC5C[C@H]3C[C@](OCc3c(-c6c(Cl)cccc6Cl)noc3C3CC3)(C5)C4)sc2c1 [Example 11-36, 2-((1R,2s,3S,5s,7s)-5-((5-Cyclopropyl-3-(2,6-dichlorophenyl)isoxazol-4-yl)methoxy)-2-hydroxyadamantan-2-yl)benzo[d]thiazole-6-carboxylic acid] | 1.1 | 0.93
O=C(O)c1cc2sc([C@]3(O)CC[C@@H](OCc4c(-c5c(Cl)cccc5Cl)noc4C4CC4)CC3)nc2cc1F [Example 11-20, 2-((1s,4s)-4-((5-Cyclopropyl-3-(2,6-dichlorophenyl)isoxazol-4-yl)methoxy)-1-hydroxycyclohexyl)-5-fluorobenzo[d]thiazole-6-carboxylic acid] | 0.18 | 1.5
O=C(O)c1cc(F)c2nc([C@]3(O)C[C@@H](OCc4c(-c5c(Cl)cccc5Cl)noc4C4CC4)C3)sc2c1 [Example 11-21, 2-((1s,3s)-3-((5-Cyclopropyl-3-(2,6-dichlorophenyl)isoxazol-4-yl)methoxy)-1-hydroxycyclobutyl)-4-fluorobenzo[d]thiazole-6-carboxylic acid] | 0.023 | 0.31
OCc1ccc(F)c([C@]2(O)CC[C@@H](OCc3c(-c4c(Cl)cccc4Cl)noc3C3CC3)CC2)c1 [Example 9-7, (1s,4s)-4-((5-Cyclopropyl-3-(2,6-dichlorophenyl)isoxazol-4-yl)methoxy)-1-(2-fluoro-5-(hydroxymethyl)phenyl)cyclohexanol] | 0.11 | 0.15
O=C(O)c1ccc2nc([C@]3(O)CC[C@@H](OCc4c(C5CC5)cnn4-c4c(Cl)cccc4Cl)CC3)sc2c1 [Example 11-13, 2-((1s,4s)-4-((4-Cyclopropyl-1-(2,6-dichlorophenyl)-1H-pyrazol-5-yl)methoxy)-1-hydroxycyclohexyl)benzo[d]thiazole-6-carboxylic acid] | 0.11 | 0.44
O=C(O)c1cc(F)c2nc([C@]3(O)CC[C@@H](OCc4c(-c5ccccc5OC(F)F)noc4C4CC4)CC3)sc2c1 [Example 11-7, 2-((1s,4s)-4-((5-Cyclopropyl-3-(2-(difluoromethoxy)phenyl)isoxazol-4-yl)methoxy)-1-hydroxycyclohexyl)-4-fluorobenzo[d]thiazole-6-carboxylic acid] | 0.15 | 1.3
